Here are results for 7 molecules from patent US12240862B2, “Inhibitors of peptidylarginine deiminases” (Gilead Sciences, Inc., priority 2020, dated 2025).

Broadly, the IC50 is the concentration that gives 50% inhibition.

Experiment [1] has as its system murine CIA model. To be noted: prophylactic treatment; cited from earlier work.
Experiment [2] concerns models of chronic and acute inflammatory diseases. The settings on record: MRL/lpr lupus, hemorrhagic shock in rats, CLP sepsis, DSS-colitis, ApoE-/- arteriosclerosis, diabetic wound healing models; cited from earlier work.
For experiment [3], the target named is T1, human PAD4 (Homo sapiens, UniProt Q9UM07).
T1 construct: human PAD4 (NM_012387), A2P663, was PCR amplified; His-SUMO (N, cleaved yes); made in house; host or cells: E. coli BL21(DE3)
As to the kind of experiment: In vitro PAD4 BAEE biochemical assay. The settings on record: human PAD4, BAEE substrate; 5 nM PAD4, 2 mM calcium chloride, 3 mM BAEE; geometric mean of multiple experiments. Put shortly:
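Ammonia generated from BAEE serves as the readout, measured by o-phthalaldehyde after EDTA termination. Final conditions: 5 nM human PAD4 (SUMO tag cleaved), 2 mM CaCl2, 3 mM BAEE, pH 7.6 MOPS buffer, 25 °C for 2 h following a 30-min compound preincubation.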

T1 sequence (Q9UM07 2-663): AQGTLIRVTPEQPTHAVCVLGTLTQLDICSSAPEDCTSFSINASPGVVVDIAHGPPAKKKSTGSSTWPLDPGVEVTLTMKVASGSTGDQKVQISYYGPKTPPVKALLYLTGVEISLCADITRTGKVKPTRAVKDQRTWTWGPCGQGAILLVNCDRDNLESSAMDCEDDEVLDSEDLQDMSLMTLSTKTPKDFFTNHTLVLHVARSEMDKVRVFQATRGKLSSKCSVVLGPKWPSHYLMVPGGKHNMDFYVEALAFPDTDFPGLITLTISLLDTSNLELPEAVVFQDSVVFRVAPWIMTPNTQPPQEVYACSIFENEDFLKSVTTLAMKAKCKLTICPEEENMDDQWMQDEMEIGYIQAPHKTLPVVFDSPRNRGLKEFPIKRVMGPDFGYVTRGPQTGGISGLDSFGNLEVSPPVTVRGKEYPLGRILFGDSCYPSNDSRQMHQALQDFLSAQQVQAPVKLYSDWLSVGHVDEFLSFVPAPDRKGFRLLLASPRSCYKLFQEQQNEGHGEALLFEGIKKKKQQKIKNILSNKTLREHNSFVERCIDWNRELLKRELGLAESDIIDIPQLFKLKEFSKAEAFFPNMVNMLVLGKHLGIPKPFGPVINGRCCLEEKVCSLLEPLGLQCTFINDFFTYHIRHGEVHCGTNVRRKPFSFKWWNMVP

Turning to GSK199, the “clinical and histological scores” value in experiment [1] was “improvement of clinical and histological scores”.
Take `NC(=O)[C@H](CCCN=C(N)CCl)NC(=O)c1ccccc1` [chloroamidine]: in experiment [1], the “clinical and histological scores” value was “improvement of clinical and histological scores”. The “clinical, inflammatory, histopathological and mechanical end points, NETosis, outcome” value in experiment [2] was “reduction of clinical, inflammatory, histopathological and mechanical end points”.
Consider YW3-56, for which, in experiment [2], the “clinical, inflammatory, histopathological and mechanical end points, NETosis, outcome” value is “reduction of clinical, inflammatory, histopathological and mechanical end points”.
As to `COc1cc(C(=O)N2C[C@@H]3CCCN[C@@H]3C2)cc2nc(-c3cc4ccc(N(C(F)F)S(C)(=O)=O)nc4n3CC3CC3)c(C)n12` [Example 337, ~{N}-[2-[7-[(4~{a}~{S}, 7~{a}~{S})-1,2,3,4,4~{a},5,7,7~{a}-octahydropyrrolo[3,4-b]pyridine-6-carbonyl]-5-methoxy-3-methylimidazo[1,2-a]pyridin-2-yl]-1-(cyclopropylmethyl)pyrrolo [2,3-b]pyridin-6-yl]-~{N}-(difluoromethyl) methanesulfonamide], the IC50 in experiment [3] stood at 12100 nM.
As for `COc1cc(C(=O)N2[C@H]3CC[C@@H]2[C@H](N)C3)cc2nc(-c3cc4ccc([C@@H](C)NC(=O)N5CCC(C(C)(C)O)C5)nc4n3CC3CC3)c(C)n12` (some centres unmarked) [Example 203, ~{N}-[(1~{R})-1-[2-[7-[(1~{R},2~{R},4~{S})-2-amino-7-azabicyclo[2.2.1]heptane-7-carbonyl]-5-methoxy-3-methylimidazo [1,2-a]pyridin-2-yl]-1-(cyclopropylmethyl)pyrrolo [2,3-b]pyridin-6-yl]ethyl]-3-(2-hydroxypropan-2-yl) pyrrolidine-1-carboxamide], in experiment [3], the IC50 stood at 32.4 nM.
The same measure, in the same setting: with `C[C@H]1CC[C@@H](N)CN1C(=O)c1ccn2c(C(F)F)c(-c3cc4ccc(N(C(F)F)S(C)(=O)=O)nc4n3CC3CC3)nc2c1` [Example 409, ~{N}-[2-[7-[(2~{S},5~{R})-5-amino-2-methylpiperidine-1-carbonyl]-3-(difluoromethyl)imidazo [1,2-a]pyridin-2-yl]-1-(cyclopropylmethyl)pyrrolo [2,3-b]pyridin-6-yl]-~{N}-(difluoromethyl) methanesulfonamide] the figure was 1170 nM; with `CCc1cc(C(=O)N2CCC[C@@H](N)C2)cc2nc(-c3cc4ccc(N(C(F)F)S(C)(=O)=O)nc4n3CC3CC3)c(C)n12` [Example 427, ~{N}-[2-[7-[(3~{R})-3-aminopiperidine-1-carbonyl]-5-ethyl-3-methylimidazo [1,2-a]pyridin-2-yl]-1-(cyclopropylmethyl)pyrrolo [2,3-b]pyridin-6-yl]-~{N}-(difluoromethyl) methanesulfonamide], 94.7 nM.
